The text below walks through data of patent US7897602B2, “Indolinone compounds as kinase inhibitors” (Development Center for Biotechnology, priority 2009, dated 2011).

As a reminder, the inhibition is the relative decrease from the control value, in per cent. Usually IC50 stands for the midpoint of a concentration-inhibition curve. Lower therefore signals inhibition by little substance. One may read the Inhibition as how much of the control response was suppressed. Read a low Inhibition as a weak effect.

The structures appear in SMILES notation.

Common to all, as to format: biochemical
For one assay, the target named is T1, Aurora A kinase (Homo sapiens, UniProt O14965).
T1 construct: purchased Upstate
T1 sequence (O14965 1-403): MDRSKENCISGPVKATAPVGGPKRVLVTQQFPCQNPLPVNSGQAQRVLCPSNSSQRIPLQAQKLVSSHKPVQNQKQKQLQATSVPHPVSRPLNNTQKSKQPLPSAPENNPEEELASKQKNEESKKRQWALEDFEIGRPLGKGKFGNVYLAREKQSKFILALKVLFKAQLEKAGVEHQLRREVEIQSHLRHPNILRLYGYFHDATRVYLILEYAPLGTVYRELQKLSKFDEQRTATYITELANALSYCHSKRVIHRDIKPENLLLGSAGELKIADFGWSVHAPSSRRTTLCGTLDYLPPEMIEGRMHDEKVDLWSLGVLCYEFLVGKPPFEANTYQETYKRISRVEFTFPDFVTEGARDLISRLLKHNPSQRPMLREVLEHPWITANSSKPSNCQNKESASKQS
Put plainly: Aurora A kinase assay ([γ-33P]ATP, CHOCKtide substrate). In a few lines:
(§1)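 Recombinant Aurora A (1 ng) or Aurora B (2.5 ng) incubated with test compound, CHOCKtide (1 μg) and [γ-33P]ATP/ATP at 10 μM (Aurora A) or 40 μM (Aurora B), 30 min at 33 °C. Stopped with phosphoric acid; filter-bound 33P counted; IC50 = half-maximal inhibition.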

The target of another assay is T2, PDGFR-β kinase (Homo sapiens, UniProt P09619).
T2 construct: recombinant N-terminal 6×His-tagged PDGFR-β kinase domain construct expressed by baculovirus; 6xHis (N); made in house
T2 sequence (P09619 600-962 limits assumed): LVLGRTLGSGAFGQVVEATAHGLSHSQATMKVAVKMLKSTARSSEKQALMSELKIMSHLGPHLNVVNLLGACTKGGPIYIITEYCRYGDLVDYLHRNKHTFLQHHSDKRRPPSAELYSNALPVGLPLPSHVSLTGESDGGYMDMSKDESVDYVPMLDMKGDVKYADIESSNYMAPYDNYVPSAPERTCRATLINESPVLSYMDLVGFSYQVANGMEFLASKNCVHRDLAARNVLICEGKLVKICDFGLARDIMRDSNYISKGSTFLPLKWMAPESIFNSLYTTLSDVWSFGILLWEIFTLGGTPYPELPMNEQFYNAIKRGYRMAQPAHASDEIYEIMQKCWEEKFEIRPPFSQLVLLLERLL
The assay can be described thus: PDGFR-β kinase assay (33P incorporation into Poly(Glu-Tyr)). The settings on record: 500 nM test compound. The method, then:
Inhibition of PDGFR-β kinase activity by compounds disclosed herein was quantified by measuring the amount of [^33P] incorporated into the substrate in the presence of a test compound. Briefly, a reaction mixture of 25 μL final volume containing 55 ng of PDGFR-β kinase (obtained by purifying recombinant N-terminal 6×His-tagged PDGFR-β kinase domain construct expressed by baculovirus), 2.5 μg of the substrate (Poly (Glu-Tyr, 4:1, Sigma)), kinase reaction buffer (20 mM MOPS pH 7.0, 1 mM EDTA, 5% glycerol, 0.01% Brij-35, 0.1% β-mercaptoethanol, 1 mg/mL BSA, 2 mM MnCl2, 30 μM ATP, 0.1 μCi per well [^33P]-γ-ATP (2,500-3,000 Ci/mmol)), and a test compound (500 nM, diluted with 4% DMSO) or DMSO (as the control) was incubated at 30° C. for 30 minutes. The reaction was stopped by adding 5 μL of 3% phosphoric acid solution. The resultant reaction solution was then harvested onto a filter plate (UniFilter-96 GF/B, PerkinElmer), washed 20 times for 5 min with d.d. H2O, and followed by the addition of 30 μL of MicroScint™-20 Cocktail (PerkinElmer). The plate was then sealed and counted using a TopCount scintillation detector (PerkinElmer). The percentage of inhibition rate of the test compound was calculated by dividing the retained radioactivity of the test sample with the retained radioactivity of the control sample and shown in Table 3.

A further assay addresses T3, Aurora B kinase (Homo sapiens, UniProt Q96GD4).
T3 construct: purchased Cell signaling
The assay can be described thus: Aurora B kinase assay ([γ-33P]ATP, CHOCKtide substrate). The method in brief:
as §1

The next assay deals with T4, c-Met kinase (Homo sapiens, UniProt P08581).
T4 construct: recombinant N-terminal 6×His-tagged c-Met kinase domain construct expressed from baculovirus; 6xHis (N); made in house
T4 sequence (P08581 1078-1345 limits assumed): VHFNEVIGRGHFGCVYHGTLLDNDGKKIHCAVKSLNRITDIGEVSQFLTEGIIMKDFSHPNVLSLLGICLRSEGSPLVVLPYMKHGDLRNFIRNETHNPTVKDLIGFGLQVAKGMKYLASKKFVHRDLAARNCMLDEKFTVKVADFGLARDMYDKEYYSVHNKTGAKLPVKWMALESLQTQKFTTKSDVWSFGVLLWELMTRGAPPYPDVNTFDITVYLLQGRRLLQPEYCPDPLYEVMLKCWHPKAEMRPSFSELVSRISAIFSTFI
The assay can be described thus: c-Met kinase assay (33P incorporation into Poly(Glu-Tyr)). The settings on record: 500 nM test compound. The method in brief:
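Recombinant N-terminal 6×His-tagged c-Met kinase domain (baculovirus-expressed, 5 ng) acted on Poly(Glu-Tyr) 4:1 with 100 μM ATP plus [33P]-γ-ATP in MOPS pH 7.0 buffer, 30 min at 30° C. Compound was at 500 nM. Filter-retained radioactivity was compared with the DMSO control to give percent inhibition.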

T3 sequence (Q96GD4 whole entry): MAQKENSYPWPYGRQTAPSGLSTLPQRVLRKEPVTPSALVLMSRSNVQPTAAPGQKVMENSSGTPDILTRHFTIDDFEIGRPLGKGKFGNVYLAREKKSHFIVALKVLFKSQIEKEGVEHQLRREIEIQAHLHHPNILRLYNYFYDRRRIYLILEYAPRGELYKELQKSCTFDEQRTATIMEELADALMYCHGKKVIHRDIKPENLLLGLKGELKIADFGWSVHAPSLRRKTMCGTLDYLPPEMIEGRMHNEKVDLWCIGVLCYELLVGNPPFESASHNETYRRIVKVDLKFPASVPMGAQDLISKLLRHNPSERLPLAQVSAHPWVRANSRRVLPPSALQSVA

For the compound `CCOC(=O)CCc1c(/C=C2\C(=O)Nc3cc(-c4cc(F)cc(F)c4)ccc32)[nH]c2c1C(=O)CCC2` [DCB-70100, (Z)-6-(3,5-difluorophenyl)-3-((3-(3-ethoxy-3-oxopropyl)-4-oxo-4,5,6,7-tetrahydro-1H-indol-2-yl)methylene)indolin-2-one], the inhibition at 1 µM is 9.9% on Aurora A kinase (1.0 μM test compound) and 13.2% against Aurora B kinase (1.0 μM test compound). The values for the inhibition at 0.5 µM at PDGFR-β kinase and on c-Met kinase were 20.3% and 13.1%, respectively.

With `CCOC(=O)CCc1c(/C=C2\C(=O)Nc3ccc(F)cc32)[nH]c2c1C(=O)CCC2` [DCB-70053, (Z)-5-fluoro-3-((3-(3-ethoxy-3-oxopropyl)-4-oxo-4,5,6,7-tetrahydro-1H-indol-2-yl)methylene)indolin-2-one], the IC50 against Aurora A kinase worked out at 1980 nM. In addition, on Aurora A kinase (1.0 μM test compound, 1 µM), the “Aurora A kinase assay Inhibition at 1.0 μM (%)” value stood at 38.2%. Besides, at PDGFR-β kinase, the inhibition at 0.5 µM was found to be 82.3%. Also, the “Aurora B kinase assay Inhibition at 1.0 μM (%)” value at Aurora B kinase (1.0 μM test compound, 1 µM) was 3.5%. Moreover, at c-Met kinase (0.5 µM), the “Inhibition at 500 nM (%) c-Met” value came out at 17.4%.

As for `CCOC(=O)CCc1c(/C=C2\C(=O)Nc3ccc(NC(=O)Nc4ccc(OC)cc4)cc32)[nH]c2c1C(=O)CCC2` [DCB-70092, (Z)-5-(3-(4-methoxyphenyl)ureido)-3-((3-(3-ethoxy-3-oxopropyl)-4-oxo-4,5,6,7-tetrahydro-1H-indol-2-yl)methylene)indolin-2-one], the inhibition at 1 µM worked out at 9.4% at Aurora A kinase (1.0 μM test compound) and 9.9% against Aurora B kinase (1.0 μM test compound). Moreover, the inhibition at 0.5 µM at PDGFR-β kinase was 14.1%; against c-Met kinase, 18.6%.

For the compound `O=C(O)CCc1c(/C=C2\C(=O)Nc3ccc(S(=O)(=O)Cc4c(Cl)cccc4Cl)cc32)[nH]c2c1C(=O)CCC2` [DCB-70073, (Z)-5-(2,6-dichlorobenzylsulfonyl)-3-((3-carboxyethyl-4-oxo-4,5,6,7-tetrahydro-1H-indol-2-yl)methylene)indolin-2-one], the figures for the inhibition at 1 µM on Aurora A kinase (1.0 μM test compound) and on Aurora B kinase (1.0 μM test compound) were 65.5% and 9.4%, respectively. In addition, the results for the inhibition at 0.5 µM against PDGFR-β kinase and against c-Met kinase were 29.3% and 91.6%, respectively.

Regarding `CCOC(=O)CCc1c(/C=C2\C(=O)Nc3ccc(-c4ccc(O)c(OC)c4)cc32)[nH]c2c1C(=O)CCC2` [DCB-70058, (Z)-5-(4-hydroxyl-3-methoxyphenyl)-3-((3-(3-ethoxy-3-oxopropyl)-4-oxo-4,5,6,7-tetrahydro-1H-indol-2-yl)methylene)indolin-2-one], the inhibition at 1 µM at Aurora A kinase (1.0 μM test compound) is 17.7%; at Aurora B kinase (1.0 μM test compound) it was -1%. The inhibition at 0.5 µM is 30.5% at PDGFR-β kinase and 9.7% against c-Met kinase.

As for `CNS(=O)(=O)c1ccc2c(c1)/C(=C/c1[nH]c3c(c1CCC(=O)N1CCN(C)CC1)C(=O)CCC3)C(=O)N2` [DCB-70117], the inhibition at 1 µM amounted to 34.9% against Aurora A kinase (1.0 μM test compound) and 5.3% at Aurora B kinase (1.0 μM test compound). The inhibition at 0.5 µM on PDGFR-β kinase came out at 8.9%; against c-Met kinase it was 41.4%.

As for `O=C(O)CCc1c(/C=C2\C(=O)Nc3ccc(S(=O)(=O)N4CCCC4)cc32)[nH]c2c1C(=O)CCC2` [DCB-70087, (Z)-5-(pyrrolidin-1-ylsulfonyl)-3-((3-carboxyethyl-4-oxo-4,5,6,7-tetrahydro-1H-indol-2-yl)methylene)indolin-2-one], the results for the half-maximal inhibitory concentration (IC50) on Aurora A kinase and against Aurora B kinase were 7.3 nM and 441 nM, respectively. For the same compound, the figures for the inhibition at 1 µM on Aurora A kinase (1.0 μM test compound) and against Aurora B kinase (1.0 μM test compound) were 99.7% and 66.2%, respectively. For the same compound, the figures for the inhibition at 0.5 µM at PDGFR-β kinase and against c-Met kinase were 7.8% and 20.9%, respectively.

`CCOC(=O)CCc1c(/C=C2\C(=O)Nc3cc(-c4ccc(F)cc4)ccc32)[nH]c2c1C(=O)CCC2` [DCB-70098, (Z)-6-(4-fluorophenyl)-3-((3-(3-ethoxy-3-oxopropyl)-4-oxo-4,5,6,7-tetrahydro-1H-indol-2-yl)methylene)indolin-2-one]: the inhibition at 1 µM at Aurora A kinase (1.0 μM test compound) turned out to be 4%; against Aurora B kinase (1.0 μM test compound), 19.5%. For the same compound, the inhibition at 0.5 µM was found to be 39.3% at PDGFR-β kinase and 27.2% against c-Met kinase.
